Assay results reported in article PMC5747364 (Science (New York, N.Y.), 2017).

Biological target: T1, SAMTOR (Homo sapiens, UniProt Q1RMZ1)
T1 sequence (Q1RMZ1 1-405): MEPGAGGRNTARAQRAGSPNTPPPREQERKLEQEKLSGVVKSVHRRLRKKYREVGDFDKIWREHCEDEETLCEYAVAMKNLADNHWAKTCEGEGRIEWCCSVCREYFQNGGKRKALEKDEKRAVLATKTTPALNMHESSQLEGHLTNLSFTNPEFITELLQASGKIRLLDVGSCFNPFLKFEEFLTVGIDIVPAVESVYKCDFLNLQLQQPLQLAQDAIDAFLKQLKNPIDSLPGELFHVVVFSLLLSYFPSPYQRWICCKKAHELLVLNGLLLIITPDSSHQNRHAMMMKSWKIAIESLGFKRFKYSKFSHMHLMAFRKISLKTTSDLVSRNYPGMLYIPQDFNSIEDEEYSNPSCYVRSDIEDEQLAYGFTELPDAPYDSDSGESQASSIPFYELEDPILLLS
Assay: competition binding against [3H]SAM on purified FLAG-SAMTOR
Conditions: competitive with [3H]SAM

Q: Which Ki does the source give for `Nc1ncnc2c1ncn2[C@@H]1O[C@H](CSCC[C@H](N)C(=O)O)[C@@H](O)[C@H]1O` [SAH] here?
A: Its Ki is “SAMTOR can also bind S-adenosylhomocysteine (SAH), the demethylated form of SAM”.
